{
  "source": "patent US20230056593A1",
  "about": "“ARGININE ASPARTATE-CONTAINING COMPOSITION FOR SUPPRESSING OLD PERSON SMELL” (HUMEDIX CO., LTD., priority 2020, published 2023)",
  "key": {"[1]": {"tested_on": "MMP-1", "assay": "MMP-1 expression level in human skin fibroblasts (PCR)", "assay_type": "cell-based", "description": "Human skin fibroblasts were cultured at a concentration of 1×10^4/well. The cells were treated with arginine aspartate for each concentration, and the MMP-1 expression level was measured using a PCR device to evaluate the ability of arginine aspartate to inhibit MMP-1. A group in which the cells were not treated with the sample was used as a control group (CON), and a group in which the cells were treated with 50 ppm of adenosine was used as a positive control group."}, "[2]": {"tested_on": "Procollagen", "assay": "Collagen synthesis ability in human skin fibroblasts (Type I Procollagen C-Peptide EIA kit)", "assay_type": "cell-based", "description": "Human skin fibroblasts were cultured at a concentration of 1×10^4/well. The cells were treated with each sample, and the amount of synthesized collagen was measured to evaluate the collagen synthesis ability. The cells were treated with adenosine at a concentration of 50 ppm as a positive control and arginine aspartate at a concentration of 10, 20 and 40 ppm. Collagen quantification was performed using a Type I Procollagen C-Peptide EIA kit (Takara, Japan). A group in which the cells were not treated with sample was used as a control group (CON)."}, "[3]": {"tested_on": "mushroom tyrosinase", "assay": "Whitening effect: mushroom tyrosinase activity (absorbance at 490 nm)", "assay_type": "biochemical", "details": "for Tyrosinase activity (% of control): 37° C. for 10 minutes, pH 6.8", "description": "After adding 200 μL of 0.1M phosphate buffer (pH 6.8) to the Eppen tube, 20 μL of each sample solution diluted at each concentration was added. Then, 20 μL of mushroom tyrosinase (2,000 units/μL) and 200 μL of 0.3% tyrosine were added in order, and then reacted at 37° C. for 10 minutes. After 200 μL of this solution was transferred to a 96-well plate, absorbance was measured at 490 nm using an ELISA reader. 100 ppm arbutin was used as a positive control."}, "[4]": {"tested_on": "TNF-α", "assay": "Anti-inflammatory effect: TNF-α expression in UVB-stimulated HaCaT cells (RT-PCR)", "assay_type": "cell-based", "details": "UVB stimulation", "description": "HaCaT cells were seeded in a 12-well plate by 1×10^5 cells/well, and after 24 hours, they were replaced with a basal medium and starvated for 6 hours. After that, the medium was replaced with the basal medium containing the sample and the cells were incubated for 24 hours. After removal of the medium, UVB stimulation was applied, and the basal medium was added and the cells were cultured for 24 hours. The medium was completely removed and the cells were washed twice with PBS. The cells were disrupted using TRIsure to recover RNA, and then RT-PCR was performed to amplify TNF-α. Electrophoresis was performed on an agarose gel and the expression rate was measured using the Gel Documentation system. 200 μM dexamethasone was used as a positive control."}, "[5]": {"assay": "Removal of 2-nonenal by arginine aspartate (HPLC over time)", "details": "0.05 wt % 2-nonenal treated with 2.5 wt % arginine aspartate, room temperature, after 20 hours", "description": "The ability of the arginine aspartate of Formula (I) according to the present invention to remove 2-nonenal was evaluated.\n2-Nonenal was dissolved at a concentration of 0.1 wt % (1000 ppm) in 50 wt % ethanol aqueous solution containing 0.5 wt % Tween 80. Arginine aspartate was dissolved at a concentration of 5 wt % (50000 ppm) in a 50 wt % ethanol aqueous solution containing 0.5 wt % Tween 80.\nThe two solutions were mixed in a 1:1 ratio by weight to make a mixed solution. The mixed solution was left at room temperature and the change in the amount of 2-nonenal was analyzed by HPLC over time. That is, the change in the amount of 2-nonenal over time was analyzed by treating 0.05 wt % 2-nonenal with arginine aspartate at a concentration of 2.5 wt %.\nFurther, the 2-nonenal solution prepared above was diluted two-fold with a 50 wt % ethanol aqueous solution containing 0.5 wt % Tween 80 and the diluted solution was left at room temperature to analyze the change in the amount of 2-nonenal over time by HPLC. That is, the change in the amount of 2-nonenal over time was analyzed in a condition of 0.05 wt % of 2-nonenal untreated with arginine aspartate."}},
  "data": [
    {"compound": "Nc1ncnc2c1ncn2[C@@H]1O[C@H](CO)[C@@H](O)[C@H]1O", "note": "[Adenosine, adenosine, reference compound]", "values": [
      {"measurement": "MMP-1 gene expression level (% of control)", "setting": "[1]; 50 ppm", "value": "73.9 % of control"},
      {"measurement": "Type I procollagen C-peptide level (% of control)", "setting": "[2]; 50 ppm", "value": "142.2 % of control"}
    ]},
    {"compound": "OC[C@H]1O[C@@H](Oc2ccc(O)cc2)[C@H](O)[C@@H](O)[C@@H]1O", "note": "[Arbutin, arbutin, reference compound]", "values": [
      {"measurement": "Tyrosinase activity (% of control)", "setting": "[3]; 10 ppm", "value": "93.6 % of control"},
      {"measurement": "Tyrosinase activity (% of control)", "setting": "[3]; 100 ppm", "value": "76.7 % of control"}
    ]},
    {"compound": "C[C@@H]1C[C@H]2[C@@H]3CCC4=CC(=O)C=C[C@]4(C)[C@@]3(F)[C@@H](O)C[C@]2(C)[C@@]1(O)C(=O)CO", "note": "[Dexamethasone, dexamethasone, reference compound]", "values": [
      {"measurement": "TNF-α gene expression level (% of control)", "setting": "[4]; 50 ppm (table)", "value": "66.9 % of control"}
    ]},
    {"compound": "arginine aspartate", "values": [
      {"measurement": "amount of 2-nonenal decreased", "setting": "[5]", "value": 74, "unit": "%"},
      {"measurement": "amount of 2-nonenal left compared to the initial 100% by weight", "setting": "[5]", "value": 26, "unit": "% by weight"},
      {"measurement": "MMP-1 gene expression level (% of control)", "setting": "[1]; 10 ppm", "value": "86.7 % of control"},
      {"measurement": "MMP-1 gene expression level (% of control)", "setting": "[1]; 20 ppm", "value": "82.2 % of control"},
      {"measurement": "MMP-1 gene expression level (% of control)", "setting": "[1]; 40 ppm", "value": "76.6 % of control"},
      {"measurement": "inhibitory effect on MMP-1", "setting": "[1]; 40 ppm", "value": 23.4, "unit": "%"},
      {"measurement": "collagen synthesis compared to the control group (CON)", "setting": "[2]; 10, 20 and 40 ppm", "value": "increase in collagen synthesis"},
      {"measurement": "Type I procollagen C-peptide level (% of control)", "setting": "[2]; 10 ppm", "value": "123.6 % of control"},
      {"measurement": "Type I procollagen C-peptide level (% of control)", "setting": "[2]; 20 ppm", "value": "133.0 % of control"},
      {"measurement": "Type I procollagen C-peptide level (% of control)", "setting": "[2]; 40 ppm", "value": "136.8 % of control"},
      {"measurement": "TNF-α gene expression level (% of control)", "setting": "[4]; 10 ppm", "value": "76.0 % of control"},
      {"measurement": "TNF-α gene expression level (% of control)", "setting": "[4]; 20 ppm", "value": "72.9 % of control"},
      {"measurement": "TNF-α gene expression level (% of control)", "setting": "[4]; 40 ppm", "value": "72.6 % of control"},
      {"measurement": "decrease in TNF-α expression level", "setting": "[4]; 40 ppm", "value": 37.4, "unit": "%"},
      {"measurement": "Tyrosinase activity (% of control)", "setting": "[3]; 10 ppm", "value": "72.5 % of control"},
      {"measurement": "inhibition in tyrosinase activity", "setting": "[3]; 100 ppm", "value": 28.3, "unit": "%"},
      {"measurement": "Tyrosinase activity (% of control)", "setting": "[3]; 100 ppm", "value": "71.7 % of control"}
    ]}
  ]
}
